Source: patent US20160310607A1, “CELL TRANSPORT” (CUPID PEPTIDE COMPANY LIMITED, priority 2013, published 2016)
Entries after “also recorded” stand apart in the source; their conditions may differ. No end group written: not given here.

How the values were obtained:
[1] = system: Dictyostelium cAMP-dependent Protein Kinase (DdPKA); assay: PKA-dependent aggregation of starved Dictyostelium cultures; type: cell-based, Dictyostelium discoideum; settings: 10 micromolar peptide
Method: FIG. 6. Cupid can transport small molecule cargo into cells. Starved Dictyostelium cultures were treated with no peptide (A), cupid B peptide (B), PKI peptide (C) and Cupid B-PKI peptide (D) and analysed for aggregation.
Upon starvation Dictyostelium initiates a developmental program leading to the aggregation of free-living amoebae. Genetic research has uncovered the crucial role that cyclic adenosine monophosphate (cAMP) plays in orchestrating as an extracellular chemoattractant in the initial aggregation process through Dictyostelium cAMP-dependent Protein Kinase (DdPKA). DdPKA can be inhibited by PKI, a 20 amino acid peptide sequence derived from an inhibitor of PKA, by PKI binding directly to the catalytic unit of PKA.
By creating a Cupid B-PKI fusion protein we aimed to establish that it prevents starving Dictyostelium cells from aggregating in vivo.

[2] = system: Dictyostelium discoideum amoeba cells; assay: Permeation of FITC-labelled peptides into cultured Dictyostelium cells (fluorescence microscopy); type: cell-based; settings: FITC-labelled peptide, 10 micromolar, 1 hour
Method: Peptides were labelled with Fluorescein isothiocyanate (FITC) using a FITC labeling kit as per instructions (Pierce, UK). When added to cell cultures the labeled peptides were visualized using a fluorescent microscope by exciting the FITC with a 488 nm spectral line, argon-ion laser (Excitation wavelength of 494 nm and an Emission wavelength of 518 nm).
AX2 wild type Dictyostelium cells were grown on SM agar plates seeded with Aerobacter aerogenes bacteria (also known as Klebsiella aerogenes) as a food source.
Cupid A ([…]) and Cupid B ([…]) were chemically synthesized labelled with FITC at the amino terminal. The peptides were added to cultured eukaryotic cells of Dictyostelium discoideum amoeba for varying amounts of time up to 2 hours. Cells were then washed and prepared for examination under a fluorescent microscope (FIG. 1). The time courses of permeation were compared to the class 3 CPP, the Antennapedia peptide, pANT which was also labelled with FITC in chemical synthesis (FIG. 2).

Sequence: TTYADRASGRTGRRNAND [PKI, reference compound]
- effect on aggregation of starved Dictyostelium cultures [1]: neither the Cupid B peptide nor the PKI peptide alone have any effect on aggregation; also recorded: cells aggregated into tight masses

Sequence: RRVQIWFQNKRAKVKR [Cupid B, cell penetrating peptide from the genome of Dictyostelium discoideum]
- effect on aggregation of starved Dictyostelium cultures [1]: neither the Cupid B peptide nor the PKI peptide alone have any effect on aggregation; also recorded: cells aggregated into tight masses

Sequence: HHHHHHRRVQIWFQNKRAKVKRIDTTYADRASGRTGRRNAIHD (also: FITC label, site not given here) [Cupid B-PKI, Cupid B-PKI fusion protein with 6x Histidine, made recombinantly in E. coli; FITC-labelled for microscopy]
- cell permeation (fluorescence microscopy) [2]: cell permeable
- effect on aggregation of starved Dictyostelium cultures [1]: completely attenuating
- effect on aggregation of starved Dictyostelium cultures ([1]; listed as Cupid-PKI): failed to aggregate
